Data published in US12703729B2, “GIP agonist compounds and methods” (Zealand Pharma A/S, priority 2014, dated 2026).
Starred links: 1 amine or outer side, 2 acyl side, 3 side chain; linkers in the order of their positions; H or OH if unused. Non-standard residues stand in square brackets, D forms with d. Residues, ends and D or L forms follow the SMILES beside them. Groups on a side chain read outwards from the residue. *: point of attachment. C20 diacid = O=C(O)CCCCCCCCCCCCCCCCCCC(=O)*; γGlu = O=C(O)[C@H](CCC(=O)[*:2])N[*:1]; AEEA = NCCOCCOCC(=O)O; Aib = CC(C)(N)C(=O)O

What was measured:
[1] = male, C57BL/6J, mouse, in vivo
in vivo = details: male, C57BL/6J, mouse; for half-life: 200 nmol/kg
[2] = biological target: T1, human GIP receptor (GIP R) (Homo sapiens, UniProt P48546); test: Activity assay at human GIP receptor, cAMP induction (AlphaScreen), Example 3
T1 sequence (P48546 22-466): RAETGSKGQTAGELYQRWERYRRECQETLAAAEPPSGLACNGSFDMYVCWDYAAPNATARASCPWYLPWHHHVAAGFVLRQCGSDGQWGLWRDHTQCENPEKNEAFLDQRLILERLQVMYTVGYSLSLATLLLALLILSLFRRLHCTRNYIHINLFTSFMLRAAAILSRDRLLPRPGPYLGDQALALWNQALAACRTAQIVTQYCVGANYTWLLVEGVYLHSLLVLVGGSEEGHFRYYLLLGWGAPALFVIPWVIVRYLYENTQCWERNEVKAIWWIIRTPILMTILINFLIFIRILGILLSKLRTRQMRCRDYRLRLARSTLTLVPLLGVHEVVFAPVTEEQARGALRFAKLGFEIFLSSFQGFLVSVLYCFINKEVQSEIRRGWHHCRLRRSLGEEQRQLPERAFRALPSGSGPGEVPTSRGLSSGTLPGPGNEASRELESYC

[3] = biological target: human GLP-1 receptor (GLP-1R) (Homo sapiens, UniProt P43220); test: Activity assay at human GLP-1 receptor, cAMP induction (AlphaScreen), Example 3
human GIP R = biological target: T2, human GIP R (Homo sapiens, UniProt P48546); test: cell-based
T2 sequence (P48546 22-466): T1 sequence (P48546 22-466)

Sequence of human GLP-1 receptor (GLP-1R) (P43220 24-463): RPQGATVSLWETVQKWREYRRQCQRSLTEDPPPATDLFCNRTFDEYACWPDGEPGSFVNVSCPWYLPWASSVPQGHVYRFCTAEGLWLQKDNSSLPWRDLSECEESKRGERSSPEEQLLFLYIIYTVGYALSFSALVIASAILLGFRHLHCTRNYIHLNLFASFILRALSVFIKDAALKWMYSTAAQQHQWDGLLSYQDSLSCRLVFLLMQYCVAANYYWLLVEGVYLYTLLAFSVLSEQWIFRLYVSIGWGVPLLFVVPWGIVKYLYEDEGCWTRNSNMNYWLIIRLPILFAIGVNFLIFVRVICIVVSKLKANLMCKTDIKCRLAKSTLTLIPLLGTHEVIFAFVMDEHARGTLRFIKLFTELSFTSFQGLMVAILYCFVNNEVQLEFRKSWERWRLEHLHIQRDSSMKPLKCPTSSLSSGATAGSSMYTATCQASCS

With `CC[C@H](C)[C@H](NC(=O)[C@H](CCCCN)NC(=O)[C@H](CC(=O)O)NC(=O)[C@H](CC(C)C)NC(=O)[C@H](CCC(=O)O)NC(=O)[C@@H](NC(=O)[C@H](CO)NC(=O)[C@H](Cc1ccc(O)cc1)NC(=O)[C@H](CC(=O)O)NC(=O)[C@H](CO)NC(=O)[C@@H](NC(=O)[C@H](Cc1ccccc1)NC(=O)[C@@H](NC(=O)CNC(=O)[C@H](CCC(=O)O)NC(=O)C(C)(C)NC(=O)[C@@H](N)Cc1ccc(O)cc1)[C@@H](C)O)[C@@H](C)CC)[C@@H](C)CC)C(=O)N[C@@H](C)C(=O)N[C@@H](C)C(=O)N[C@@H](CCC(N)=O)C(=O)N[C@@H](CC(=O)O)C(=O)N[C@@H](Cc1ccccc1)C(=O)N[C@H](C(=O)N[C@@H](CC(N)=O)C(=O)N[C@@H](Cc1c[nH]c2ccccc12)C(=O)N[C@@H](CC(C)C)C(=O)N[C@@H](CC(C)C)C(=O)N[C@@H](C)C(=O)NCC(=O)N1CCC[C@H]1C(=O)N[C@@H](CO)C(=O)N[C@@H](CO)C(=O)NCC(=O)N[C@@H](C)C(=O)N1CCC[C@H]1C(=O)N1CCC[C@H]1C(=O)N1CCC[C@H]1C(=O)N[C@@H](CO)C(=O)N[C@@H](CCCCNC(=O)COCCOCCNC(=O)COCCOCCNC(=O)CC[C@H](NC(=O)CCCCCCCCCCCCCCCCCCC(=O)O)C(=O)O)C(N)=O)C(C)C` [Compound 16] (H-Y[Aib]EGTFISDYSIELDKIAAQDFVNWLLAGPSSGAPPPSK([AEEA-AEEA-γGlu-C20 diacid])-NH2) the Bioavailability s.c. [1] was 88%, the “Terminal elimination half-life T½ i.v.” value ([1]; iv, 200 nmol/kg) was 19.2 h and the “Terminal elimination half-life T½ s.c.” value ([1]; sc, 200 nmol/kg) was 16.7 h. For the same molecule, the bioavailability (in vivo; Bioavailability s.c.) was 81%, the half-life (in vivo; iv, Terminal elimination half-life T½ i.v.) was 1400 min and the Tmax (in vivo; sc) was 8 h. For the same molecule, the half-life (in vivo; sc, Terminal elimination half-life T½ s.c.) was 1420 min, the EC50 [2] was 0.012 nM and the EC50 [3] was over 10 nM. For the same molecule, the EC50 (human GIP R) was 0.016 nM.
